In experiment [1] the test system is Trypanosoma brucei Lister 427 VSG221 with APOL1 G1 recombinant protein. Nature of the experiment: APOL1 G1 trypanosome cell rescue assay (Example B5). The format is cell-based. The settings on record: Trypanosoma brucei, 20 h, read-out: APOL1 G1 Trypanosome Rescue EC50, Trypanosoma brucei Lister 427 VSG221 with APOL1 G1 recombinant protein, 20 hours, CellTiter-Glo; geometric mean of at least 2 assay runs; † = single assay run. In short, it runs like this:
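Compounds in duplicate 2-fold, 11-point series with 0.4% DMSO final. Next, tag-free mature APOL1 variant protein went in from a 2 μg/mL solution, then trypanosomes to 250 per well. Plates incubated 20 h humidified at 37° C, equilibrated to room temperature, and CellTiter-Glo added for luminescence.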
(Cellular ATP, detected with luciferase, serves as a proxy for viable cell number.)

The test system of experiment [2] is HEK293 cells overexpressing APOL1 G2. Nature of the experiment: APOL1 G2 HEK293 cell rescue assay (reversal of cell death caused by overexpression of APOL1). The format is cell-based. The settings on record: Homo sapiens, HEK293, HEK293 overexpressing APOL1 G2; geometric mean of at least 2 assay runs; † = single assay run. In short, it runs like this: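 EC50 is the half-maximal effective concentration for reversing cell death driven by APOL1 G2 overexpression in HEK293 cells. Reported as geometric mean of at least 2 runs on separate days, each run averaging duplicate wells per plate; some values from a single run.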

The term EC50 denotes the concentration giving half of the maximal effect.

As to `CC(C)(O)c1ncc(OCCN2CCC3(CC2)C(=O)Nc2ccc(Cl)cc23)cn1` [Compound 305, 5-chloro-1′-(2-{[2-(2-hydroxypropan-2-yl)pyrimidin-5-yl]oxy}ethyl)-1,2-dihydrospiro[indole-3,4′-piperidin]-2-one], the figures for the half-maximal effective concentration (EC50) in experiment [1] and in experiment [2] were 265 nM and 85.4 nM, respectively.
The corresponding values for `CC1(O)CN(c2nccc3cc(OCCN4CCC5(CC4)C(=O)Nc4ccc(Cl)cc45)cnc23)C1` [Compound 306, 5-chloro-1′-(2-{[8-(3-hydroxy-3-methylazetidin-1-yl)-1,7-naphthyridin-3-yl]oxy}ethyl)-1,2-dihydrospiro[indole-3,4′-piperidin]-2-one] are 50.8 nM and 110 nM.
On the same counts, the results for `O=C1Nc2ccc(Cl)cc2C12CCN(CCOc1cnc3c(N4CC(O)C4)nccc3c1)CC2` [Compound 314, 5-chloro-1′-(2-{[8-(3-hydroxyazetidin-1-yl)-1,7-naphthyridin-3-yl]oxy}ethyl)-1,2-dihydrospiro[indole-3,4′-piperidin]-2-one] are 34.9 nM and 24.3 nM.

The values are drawn from patent US12344610B2, “APOL1 inhibitors and methods of use” (Maze Therapeutics, Inc., priority 2022, dated 2025).
